Patent US9850256B2, “Antibacterial basic biaromatic derivatives with aminoalkoxy substitution” (priority 2014, dated 2017)
≈ marks a conversion by molar mass, not a printed value. Blank lines part the entries; values can stand above or below the compound they belong to.

How the values were obtained:
Assay in all cases: Bacterial growth minimal inhibitory concentration (microdilution, cation-adjusted Mueller-Hinton Broth)
P. aeruginosa ATCC 27853 = assay type: cell-based, Pseudomonas aeruginosa; conditions: Pseudomonas aeruginosa, ATCC27853; quinolone-sensitive strain
Method: (§1) Minimal Inhibitory Concentrations (MICs; mg/L) were determined in cation-adjusted Mueller-Hinton Broth by a microdilution method following the description given in “Methods for Dilution Antimicrobial Susceptibility Tests for Bacteria that Grow Aerobically”, Approved standard, 7th ed., Clinical and Laboratory Standards Institute (CLSI) Document M7-A7, Wayne, Pa., USA (2006).
(§2) All Example compounds were tested against several Gram positive and Gram negative bacteria. […] Staphylococcus aureus A798 is a multiply-resistant strain (methicillin- and quinolone-resistant), Klebsiella pneumoniae T6474 is a multiply-resistant strain (penicillin-, cephalosporin- and in particular quinolone-resistant), while E. coli ATCC25922 and Pseudomonas aeruginosa ATCC 27853 are quinolone-sensitive strains.

E. coli ATCC25922 = assay type: cell-based; conditions: Escherichia coli, ATCC25922; quinolone-sensitive strain
Method: as §1, §2

K. pneumoniae T6474 = assay type: cell-based, Klebsiella pneumoniae; conditions: Klebsiella pneumoniae, T6474; multiply-resistant strain (penicillin-, cephalosporin- and quinolone-resistant)
Method: as §1, §2

S. aureus A798 = assay type: cell-based, Staphylococcus aureus; conditions: Staphylococcus aureus, A798; multiply-resistant strain (methicillin- and quinolone-resistant)
Method: as §1, §2

SMILES: O=C1COc2ccc(N3C[C@H](CCNCc4cccc(-c5cc(O[C@@H]6CCNC6)ncn5)c4)OC3=O)nc2N1 [Example $116, 6-[(S)-2-oxo-5-(2-{3-[6-((R)-pyrrolidin-3-yloxy)-pyrimidin-4-yl]-benzylamino}-ethyl)-oxazolidin-3-yl]-4H-pyrido[3,2-b][1,4]oxazin-3-one]
MIC (P. aeruginosa ATCC 27853): 2 mg/L (≈ 3.76 µM)
MIC (E. coli ATCC25922): 2 mg/L (≈ 3.76 µM)
MIC (K. pneumoniae T6474): 8 mg/L (≈ 15 µM)
MIC (S. aureus A798): 4 mg/L (≈ 7.52 µM)

SMILES: C[C@@H]1[C@H](Oc2cccc(-c3cccc(CNCC[C@H]4CN(c5ccc6c(n5)NC(=O)CO6)C(=O)O4)c3)n2)CN1C (mixture of isomers) [Example $178, 6-[(S)-5-(2-{3-[6-((2RS,3RS)-1,2-dimethyl-azetidin-3-yloxy)-pyridin-2-yl]-benzylamino}-ethyl)-2-oxo-oxazolidin-3-yl]-4H-pyrido[3,2-b][1,4]oxazin-3-one]
MIC (P. aeruginosa ATCC 27853): 1 mg/L
MIC (E. coli ATCC25922): 0.5 mg/L
MIC (K. pneumoniae T6474): 1 mg/L
MIC (S. aureus A798): 0.125 mg/L

SMILES: CN1CC[C@@H](Oc2cnnc(-c3cccc(CNCC[C@H]4CN(c5ccc6c(n5)NC(=O)CO6)C(=O)O4)c3)c2)C1 [Example $166, 6-[(S)-5-(2-{3-[5-((R)-1-methyl-pyrrolidin-3-yloxy)-pyridazin-3-yl]-benzylamino}-ethyl)-2-oxo-oxazolidin-3-yl]-4H-pyrido[3,2-b][1,4]oxazin-3-one]
MIC (P. aeruginosa ATCC 27853): 4 mg/L (≈ 7.33 µM)
MIC (E. coli ATCC25922): 2 mg/L (≈ 3.67 µM)
MIC (K. pneumoniae T6474): 4 mg/L (≈ 7.33 µM)
MIC (S. aureus A798): 4 mg/L (≈ 7.33 µM)

SMILES: NCCOc1cccc(-c2ccnc(CNCC[C@H]3CN(c4ccc5c(n4)NC(=O)CO5)C(=O)O3)c2)n1.O=CO [Example 16, 6-[(S)-5-(2-{[6-(2-amino-ethoxy)-[2,4′]bipyridinyl-2′-ylmethyl]-amino}-ethyl)-2-oxo-oxazolidin-3-yl]-4H-pyrido[3,2-b][1,4]oxazin-3-one formate]
MIC (P. aeruginosa ATCC 27853): 0.5 mg/L
MIC (E. coli ATCC25922): 2 mg/L
MIC (K. pneumoniae T6474): 4 mg/L
MIC (S. aureus A798): 0.5 mg/L

SMILES: CN1CC(Oc2cncc(-c3cc(CNCC[C@H]4CN(c5ccc6c(n5)NC(=O)CO6)C(=O)O4)ccn3)n2)C1 [Example $189, 6-{(S)-5-[2-({2-[6-(1-methyl-azetidin-3-yloxy)-pyrazin-2-yl]-pyridin-4-ylmethyl}-amino)-ethyl]-2-oxo-oxazolidin-3-yl}-4H-pyrido[3,2-b][1,4]oxazin-3-one]
MIC (P. aeruginosa ATCC 27853): 2 mg/L (≈ 3.76 µM)
MIC (E. coli ATCC25922): 1 mg/L (≈ 1.88 µM)
MIC (K. pneumoniae T6474): 1 mg/L (≈ 1.88 µM)
MIC (S. aureus A798): 0.25 mg/L (≈ 0.469 µM)

SMILES: CN1CC[C@H](Oc2cncc(-c3cc(CNCC[C@H]4CN(c5ccc6c(n5)NC(=O)CO6)C(=O)O4)ccn3)n2)C1 [Example $147, 6-{(S)-5-[2-({2-[6-((S)-1-methyl-pyrrolidin-3-yloxy)-pyrazin-2-yl]-pyridin-4-ylmethyl}-amino)-ethyl]-2-oxo-oxazolidin-3-yl}-4H-pyrido[3,2-b][1,4]oxazin-3-one]
MIC (P. aeruginosa ATCC 27853): 4 mg/L (≈ 7.32 µM)
MIC (E. coli ATCC25922): 1 mg/L (≈ 1.83 µM)
MIC (K. pneumoniae T6474): 1 mg/L (≈ 1.83 µM)
MIC (S. aureus A798): 1 mg/L (≈ 1.83 µM)

SMILES: CN1CC(Oc2cnnc(-c3cccc(CNCC[C@H]4CN(c5ccc6c(n5)NC(=O)CO6)C(=O)O4)c3)c2)C1 [Example $174, 6-[(S)-5-(2-{3-[5-(1-methyl-azetidin-3-yloxy)-pyridazin-3-yl]-benzylamino}-ethyl)-2-oxo-oxazolidin-3-yl]-4H-pyrido[3,2-b][1,4]oxazin-3-one]
MIC (P. aeruginosa ATCC 27853): 2 mg/L (≈ 3.76 µM)
MIC (E. coli ATCC25922): 1 mg/L (≈ 1.88 µM)
MIC (K. pneumoniae T6474): 2 mg/L (≈ 3.76 µM)
MIC (S. aureus A798): 2 mg/L (≈ 3.76 µM)

SMILES: COc1cc(OCCN)cc(-c2cccc(CNCC[C@H]3CN(c4ccc5c(n4)NC(=O)CO5)C(=O)O3)c2)n1 [Example $161, 6-[(S)-5-(2-{3-[4-(2-amino-ethoxy)-6-methoxy-pyridin-2-yl]-benzylamino}-ethyl)-2-oxo-oxazolidin-3-yl]-4H-pyrido[3,2-b][1,4]oxazin-3-one]
MIC (P. aeruginosa ATCC 27853): 1 mg/L (≈ 1.87 µM)
MIC (E. coli ATCC25922): 0.5 mg/L (≈ 0.935 µM)
MIC (K. pneumoniae T6474): 1 mg/L (≈ 1.87 µM)
MIC (S. aureus A798): 0.5 mg/L (≈ 0.935 µM)

SMILES: N[C@@H]1CC[C@H](Oc2cccc(-c3cccc(CNCC[C@H]4CN(c5ccc6c(n5)NC(=O)CO6)C(=O)O4)c3)c2)C1 [$183, 6-[(S)-5-(2-{[3′-((1S,3R)-3-amino-cyclopentyloxy)-biphenyl-3-ylmethyl]-amino}-ethyl)-2-oxo-oxazolidin-3-yl]-4H-pyrido[3,2-b][1,4]oxazin-3-one]
MIC (P. aeruginosa ATCC 27853): 4 mg/L (≈ 7.36 µM)
MIC (E. coli ATCC25922): 4 mg/L (≈ 7.36 µM)
MIC (K. pneumoniae T6474): 4 mg/L (≈ 7.36 µM)
MIC (S. aureus A798): 2 mg/L (≈ 3.68 µM)

SMILES: CN1CC[C@H](Oc2cccc(-c3ccnc(CNCC[C@H]4CN(c5ccc6c(n5)NC(=O)CO6)C(=O)O4)c3)n2)C1 [Example $128, 6-[(S)-5-(2-{[6-((S)-1-methyl-pyrrolidin-3-yloxy)-[2,4′]bipyridinyl-2′-ylmethyl]-amino}-ethyl)-2-oxo-oxazolidin-3-yl]-4H-pyrido[3,2-b][1,4]oxazin-3-one]
MIC (P. aeruginosa ATCC 27853): 1 mg/L (≈ 1.83 µM)
MIC (E. coli ATCC25922): 0.5 mg/L (≈ 0.916 µM)
MIC (K. pneumoniae T6474): 1 mg/L (≈ 1.83 µM)
MIC (S. aureus A798): 0.25 mg/L (≈ 0.458 µM)

SMILES: O=C1COc2ccc(N3C[C@H](CCNCc4cccc(-c5cccc(OC[C@@H]6CCCN6)c5)c4)OC3=O)nc2N1 [Example $102, 6-((S)-2-oxo-5-(2-(((3′-(((S)-pyrrolidin-2-yl)methoxy)-[1,1′-biphenyl]-3-yl)methyl)amino)ethyl)oxazolidin-3-yl)-2H-pyrido[3,2-b][1,4]oxazin-3(4H)-one]
MIC (P. aeruginosa ATCC 27853): 2 mg/L (≈ 3.68 µM)
MIC (E. coli ATCC25922): 1 mg/L (≈ 1.84 µM)
MIC (K. pneumoniae T6474): 2 mg/L (≈ 3.68 µM)
MIC (S. aureus A798): 2 mg/L (≈ 3.68 µM)

SMILES: CN1CC[C@H](Oc2cncc(-c3ccnc(CNCC[C@H]4CN(c5ccc6c(n5)NC(=O)CO6)C(=O)O4)c3)n2)C1 [Example $148, 6-{(S)-5-[2-({4-[6-((S)-1-methyl-pyrrolidin-3-yloxy)-pyrazin-2-yl]-pyridin-2-ylmethyl}-amino)-ethyl]-2-oxo-oxazolidin-3-yl}-4H-pyrido[3,2-b][1,4]oxazin-3-one]
MIC (P. aeruginosa ATCC 27853): 1 mg/L (≈ 1.83 µM)
MIC (E. coli ATCC25922): 1 mg/L (≈ 1.83 µM)
MIC (K. pneumoniae T6474): 1 mg/L (≈ 1.83 µM)
MIC (S. aureus A798): 1 mg/L (≈ 1.83 µM)

More lines, in order of falling MIC (P. aeruginosa ATCC 27853), values ahead:

MIC (P. aeruginosa ATCC 27853): 8 mg/L (≈ 15.1 µM)
MIC (E. coli ATCC25922): 2 mg/L (≈ 3.78 µM)
MIC (K. pneumoniae T6474): 2 mg/L (≈ 3.78 µM)
MIC (S. aureus A798): 1 mg/L (≈ 1.89 µM)
SMILES: NC1(COc2cccc(-c3cccc(CNCC[C@H]4CN(c5ccc6c(n5)NC(=O)CO6)C(=O)O4)c3)c2)CC1 [Example 14, 6-[(S)-5-(2-{[3′-(1-amino-cyclopropylmethoxy)-biphenyl-3-ylmethyl]-amino}-ethyl)-2-oxo-oxazolidin-3-yl]-4H-pyrido[3,2-b][1,4]oxazin-3-one]

MIC (P. aeruginosa ATCC 27853): 8 mg/L (≈ 13.9 µM)
MIC (E. coli ATCC25922): 4 mg/L (≈ 6.96 µM)
MIC (K. pneumoniae T6474): 8 mg/L (≈ 13.9 µM)
MIC (S. aureus A798): 0.125 mg/L (≈ 0.218 µM)
SMILES: O=C1COc2ccc(N3C[C@H](CCNCc4cccc(-c5cccc(OCCN6CCOCC6)n5)c4)OC3=O)nc2N1 [Example 23, 6-[(S)-5-(2-{3-[6-(2-morpholin-4-yl-ethoxy)-pyridin-2-yl]-benzylamino}-ethyl)-2-oxo-oxazolidin-3-yl]-4H-pyrido[3,2-b][1,4]oxazin-3-one]

MIC (P. aeruginosa ATCC 27853): 2 mg/L (≈ 3.67 µM)
MIC (E. coli ATCC25922): 1 mg/L (≈ 1.83 µM)
MIC (K. pneumoniae T6474): 1 mg/L (≈ 1.83 µM)
MIC (S. aureus A798): 0.25 mg/L (≈ 0.458 µM)
SMILES: CN1CC[C@H](Oc2cccc(-c3cc(CNCC[C@H]4CN(c5ccc6c(n5)NC(=O)CO6)C(=O)O4)ccn3)n2)C1 [Example $139, 6-[(S)-5-(2-{[6′-((S)-1-methyl-pyrrolidin-3-yloxy)-[2,2′]bipyridinyl-4-ylmethyl]-amino}-ethyl)-2-oxo-oxazolidin-3-yl]-4H-pyrido[3,2-b][1,4]oxazin-3-one]

MIC (P. aeruginosa ATCC 27853): 2 mg/L (≈ 3.57 µM)
MIC (E. coli ATCC25922): 2 mg/L (≈ 3.57 µM)
MIC (K. pneumoniae T6474): 2 mg/L (≈ 3.57 µM)
MIC (S. aureus A798): 2 mg/L (≈ 3.57 µM)
SMILES: CN1CC[C@H](Oc2cccc(-c3cccc(CNCC[C@@H]4CN(c5ccc6c(c5)NC(=O)CS6)C(=O)O4)c3)n2)C1 [Example $150, 6-[(R)-5-(2-{3-[6-((S)-1-methyl-pyrrolidin-3-yloxy)-pyridin-2-yl]-benzylamino}-ethyl)-2-oxo-oxazolidin-3-yl]-4H-benzo[1,4]thiazin-3-one]

MIC (P. aeruginosa ATCC 27853): 2 mg/L (≈ 3.58 µM)
MIC (E. coli ATCC25922): 2 mg/L (≈ 3.58 µM)
MIC (K. pneumoniae T6474): 2 mg/L (≈ 3.58 µM)
MIC (S. aureus A798): 0.5 mg/L (≈ 0.895 µM)
SMILES: CN1CC[C@H](COc2cccc(-c3cccc(CNCC[C@H]4CN(c5ccc6c(n5)NC(=O)CO6)C(=O)O4)c3)n2)C1 [Example $141, 6-[(S)-5-(2-{3-[6-((S)-1-methyl-pyrrolidin-3-ylmethoxy)-pyridin-2-yl]-benzylamino}-ethyl)-2-oxo-oxazolidin-3-yl]-4H-pyrido[3,2-b][1,4]oxazin-3-one]

MIC (P. aeruginosa ATCC 27853): 2 mg/L (≈ 3.67 µM)
MIC (E. coli ATCC25922): 2 mg/L (≈ 3.67 µM)
MIC (K. pneumoniae T6474): 2 mg/L (≈ 3.67 µM)
MIC (S. aureus A798): 0.5 mg/L (≈ 0.918 µM)
SMILES: CN1CC(COc2cccc(-c3cccc(CNCC[C@H]4CN(c5ccc6c(n5)NC(=O)CO6)C(=O)O4)c3)n2)C1 [Example $113, 6-[(S)-5-(2-{3-[6-(1-methyl-azetidin-3-ylmethoxy)-pyridin-2-yl]-benzylamino}-ethyl)-2-oxo-oxazolidin-3-yl]-4H-pyrido[3,2-b][1,4]oxazin-3-one]

MIC (P. aeruginosa ATCC 27853): 2 mg/L
MIC (E. coli ATCC25922): 2 mg/L
MIC (K. pneumoniae T6474): 2 mg/L
MIC (S. aureus A798): 0.5 mg/L
SMILES: CN1CCC[C@H](Oc2cccc(-c3cccc(CNCCC4CN(c5ccc6c(n5)NC(=O)CO6)C(=O)O4)c3)n2)C1 (mixture of isomers) [Example $142, 6-[(RS)-5-(2-{3-[6-((S)-1-methyl-piperidin-3-yloxy)-pyridin-2-yl]-benzylamino}-ethyl)-2-oxo-oxazolidin-3-yl]-4H-pyrido[3,2-b][1,4]oxazin-3-one]

MIC (P. aeruginosa ATCC 27853): 1 mg/L (≈ 1.87 µM)
MIC (E. coli ATCC25922): 1 mg/L (≈ 1.87 µM)
MIC (K. pneumoniae T6474): 2 mg/L (≈ 3.75 µM)
MIC (S. aureus A798): 0.5 mg/L (≈ 0.937 µM)
SMILES: COc1cc(OCCN)cc(-c2cccc(CNCC[C@H]3CN(c4ccc5c(n4)NC(=O)CO5)C(=O)O3)c2)c1 [Example 21, 6-[(S)-5-(2-{[3′-(2-amino-ethoxy)-5′-methoxy-biphenyl-3-ylmethyl]-amino}-ethyl)-2-oxo-oxazolidin-3-yl]-4H-pyrido[3,2-b][1,4]oxazin-3-one]
